Results from the supplement of paper PMC10307832.

Legend:
Experiment in all cases: relative viability (nuclei count vs DMSO), 5 days (fraction); higher = more cells survive
[1] = tested on: 201T
Method in brief: (§1)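 Lung cancer cell lines in 1536-well plates got either a single drug or a fixed anchor-drug dose together with five library-drug doses (not always all listed) in √10 steps, by pin tool, on the day after seeding. Nuclei were counted after 5 days, and relative viability is the treated-to-vehicle ratio of nuclei counts. Values are medians of duplicate plates.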

[2] = tested on: COR-L23
Method in brief: as §1

[3] = tested on: ChaGo-K-1
Method in brief: as §1

[4] = tested on: HARA
Method in brief: as §1

[5] = tested on: HCC-15
Method in brief: as §1

[6] = tested on: HCC-366
Method in brief: as §1

[7] = tested on: HCC-78
Method in brief: as §1

[8] = tested on: LCLC-97TM1
Method in brief: as §1

[9] = tested on: LK-2
Method in brief: as §1

[10] = tested on: LOU-NH91
Method in brief: as §1

[11] = tested on: NCI-H1355
Method in brief: as §1

[12] = tested on: NCI-H1650
Method in brief: as §1

[13] = tested on: NCI-H1734
Method in brief: as §1

[14] = tested on: NCI-H1792
Method in brief: as §1

[15] = tested on: NCI-H1975
Method in brief: as §1

[16] = tested on: NCI-H1993
Method in brief: as §1

[17] = tested on: NCI-H2085
Method in brief: as §1

[18] = tested on: NCI-H2405
Method in brief: as §1

[19] = tested on: NCI-H3122
Method in brief: as §1

[20] = tested on: NCI-H460
Method in brief: as §1

[21] = tested on: NCI-H520
Method in brief: as §1

[22] = tested on: NCI-H838
Method in brief: as §1

[23] = tested on: SK-LU-1
Method in brief: as §1

C=C1C(=O)O[C@@H](CCCCCCCC)[C@@H]1C(=O)O [C-75] + CC(=O)c1c(C)c2cnc(Nc3ccc(N4CCNCC4)cn3)nc2n(C2CCCC2)c1=O [Palbociclib] (partner 0.5 µM)
relative viability ([1]; first compound 0.08 µM): 0.377
relative viability ([1]; first compound 0.253 µM): 0.374
relative viability ([1]; first compound 0.8 µM): 0.336
relative viability ([1]; first compound 2.53 µM): 0.3
relative viability ([1]; first compound 8 µM): 0.347
relative viability ([2]; first compound 0.08 µM): 0.353
relative viability ([2]; first compound 0.253 µM): 0.305
relative viability ([2]; first compound 0.8 µM): 0.255
relative viability ([2]; first compound 2.53 µM): 0.24
relative viability ([2]; first compound 8 µM): 0.28
relative viability ([3]; first compound 0.08 µM): 0.87
relative viability ([3]; first compound 0.253 µM): 0.894
relative viability ([3]; first compound 0.8 µM): 0.888
relative viability ([3]; first compound 2.53 µM): 0.519
relative viability ([3]; first compound 8 µM): 0.915
relative viability ([4]; first compound 0.08 µM): 0.254
relative viability ([4]; first compound 0.253 µM): 0.222
relative viability ([4]; first compound 0.8 µM): 0.273
relative viability ([4]; first compound 2.53 µM): 0.222
relative viability ([4]; first compound 8 µM): 0.28
relative viability ([5]; first compound 0.08 µM): 0.717
relative viability ([5]; first compound 0.253 µM): 0.699
relative viability ([5]; first compound 0.8 µM): 0.605
relative viability ([5]; first compound 2.53 µM): 0.628
relative viability ([5]; first compound 8 µM): 0.664
relative viability ([6]; first compound 0.08 µM): 0.363
relative viability ([6]; first compound 0.253 µM): 0.477
relative viability ([6]; first compound 0.8 µM): 0.33
relative viability ([6]; first compound 2.53 µM): 0.334
relative viability ([6]; first compound 8 µM): 0.343
relative viability ([7]; first compound 0.08 µM): 0.476
relative viability ([7]; first compound 0.253 µM): 0.469
relative viability ([7]; first compound 0.8 µM): 0.514
relative viability ([7]; first compound 2.53 µM): 0.459
relative viability ([7]; first compound 8 µM): 0.461
relative viability ([8]; first compound 0.08 µM): 0.225
relative viability ([8]; first compound 0.253 µM): 0.261
relative viability ([8]; first compound 0.8 µM): 0.177
relative viability ([8]; first compound 2.53 µM): 0.18
relative viability ([8]; first compound 8 µM): 0.239
relative viability ([9]; first compound 0.08 µM): 0.779
relative viability ([9]; first compound 0.253 µM): 0.754
relative viability ([9]; first compound 0.8 µM): 0.723
relative viability ([9]; first compound 2.53 µM): 0.495
relative viability ([9]; first compound 8 µM): 0.573
relative viability ([10]; first compound 0.08 µM): 0.534
relative viability ([10]; first compound 0.253 µM): 0.536
relative viability ([10]; first compound 0.8 µM): 0.504
relative viability ([10]; first compound 8 µM): 0.464
relative viability ([11]; first compound 0.08 µM): 0.402
relative viability ([11]; first compound 0.253 µM): 0.388
relative viability ([11]; first compound 0.8 µM): 0.428
relative viability ([11]; first compound 2.53 µM): 0.364
relative viability ([11]; first compound 8 µM): 0.463
relative viability ([12]; first compound 0.08 µM): 0.431
relative viability ([12]; first compound 0.253 µM): 0.414
relative viability ([12]; first compound 0.8 µM): 0.342
relative viability ([12]; first compound 8 µM): 0.38
relative viability ([13]; first compound 0.08 µM): 0.34
relative viability ([13]; first compound 0.253 µM): 0.315
relative viability ([13]; first compound 0.8 µM): 0.36
relative viability ([13]; first compound 2.53 µM): 0.254
relative viability ([13]; first compound 8 µM): 0.345
relative viability ([14]; first compound 0.08 µM): 0.67
relative viability ([14]; first compound 0.253 µM): 0.656
relative viability ([14]; first compound 0.8 µM): 0.686
relative viability ([14]; first compound 2.53 µM): 0.381
relative viability ([14]; first compound 8 µM): 0.65
relative viability ([15]; first compound 0.08 µM): 0.67
relative viability ([15]; first compound 0.253 µM): 0.433
relative viability ([15]; first compound 0.8 µM): 0.525
relative viability ([15]; first compound 2.53 µM): 0.484
relative viability ([15]; first compound 8 µM): 0.581
relative viability ([16]; first compound 0.08 µM): 0.618
relative viability ([16]; first compound 0.253 µM): 0.778
relative viability ([16]; first compound 0.8 µM): 0.719
relative viability ([16]; first compound 2.53 µM): 0.553
relative viability ([16]; first compound 8 µM): 0.642
relative viability ([17]; first compound 0.08 µM): 0.491
relative viability ([17]; first compound 0.253 µM): 0.403
relative viability ([17]; first compound 0.8 µM): 0.443
relative viability ([17]; first compound 2.53 µM): 0.436
relative viability ([17]; first compound 8 µM): 0.468
relative viability ([18]; first compound 0.08 µM): 0.523
relative viability ([18]; first compound 0.253 µM): 0.384
relative viability ([18]; first compound 0.8 µM): 0.557
relative viability ([18]; first compound 2.53 µM): 0.423
relative viability ([18]; first compound 8 µM): 0.515
relative viability ([19]; first compound 0.08 µM): 0.18
relative viability ([19]; first compound 0.253 µM): 0.193
relative viability ([19]; first compound 0.8 µM): 0.153
relative viability ([19]; first compound 2.53 µM): 0.18
relative viability ([19]; first compound 8 µM): 0.213
relative viability ([20]; first compound 0.08 µM): 0.0813
relative viability ([20]; first compound 0.253 µM): 0.104
relative viability ([20]; first compound 0.8 µM): 0.126
relative viability ([20]; first compound 2.53 µM): 0.132
relative viability ([20]; first compound 8 µM): 0.155
relative viability ([21]; first compound 0.08 µM): 0.186
relative viability ([21]; first compound 0.253 µM): 0.238
relative viability ([21]; first compound 0.8 µM): 0.225
relative viability ([21]; first compound 2.53 µM): 0.225
relative viability ([21]; first compound 8 µM): 0.211
relative viability ([22]; first compound 0.08 µM): 0.227
relative viability ([22]; first compound 0.253 µM): 0.206
relative viability ([22]; first compound 0.8 µM): 0.194
relative viability ([22]; first compound 2.53 µM): 0.207
relative viability ([22]; first compound 8 µM): 0.206
relative viability ([23]; first compound 0.08 µM): 0.384
relative viability ([23]; first compound 0.253 µM): 0.43
relative viability ([23]; first compound 0.8 µM): 0.429
relative viability ([23]; first compound 2.53 µM): 0.387
relative viability ([23]; first compound 8 µM): 0.384
